Consider one molecule from patent publication US20260199481A1, “PROTEIN DEGRADATION TARGETING CHIMERA COMPOUND, COMPOSITION THEREOF, AND USE THEREOF” (TSINGHUA UNIVERSITY, priority 2022, published 2026).

In assay [1] the target is T1, BRD4 (Homo sapiens, UniProt O60885).
T1 construct: endogenous in cells; host or cells: MCF-7
The assay is described as follows: Protein degradation activity, Western blotting of BRD4 in MCF-7 cells. Format: cell-based. The method, then:
Cell treatment: MCF-7 cells in the logarithmic growth phase were taken for the experiment. Cells were inoculated in six-well plates at a density of 5.0×10^5 cells/per well and incubated at 37° C. for 24 hours. […]
Whole cell protein extraction: After completion of drug treatment, the culture medium was discarded, and the cells were washed 3 times with pre-cooled PBS. Cells were scraped off using a cell scraper, and the resulting solution was carefully aspirated and centrifuged at 300 g for 5 min at 4° C. to obtain cells, which were washed with PBS, resuspended, and centrifuged under the same conditions.
Cell lysis: Cells were washed with pre-cooled PBS and lysed in pre-cooled lysis buffer (containing 1% protease and phosphatase inhibitor) for 30 min, and cells were vigorously vortexed several times during lysis. After lysis was completed, the cells were centrifuged at 11,000 g for 15 min at 4° C., and the supernatant was collected as whole cell protein.
Protein denaturation: protein concentration was measured by Bradford assay. Proteins were diluted using 4× Protein Sampling Buffer. Subsequently, the proteins were denatured by heating in a metal bath at 100° C. for 15 min.
Protein Immunoblotting Assay (Western Blotting, WB) was Performed to Quantify BRD4 Protein:
1) Protein electrophoresis: proteins were separated in 4-12% or 4-20% Bis-Tris SDS-PAGE gels. The appropriate volume of the above cell whole protein extract was added to the lanes of the above SDS-PAGE gel. Turn on the power and electrophoresis at 120 V for 15 minutes, then adjust the voltage to 180 V and continue electrophoresis until the loading buffer reaches the lowest end of the gel.
(2) Membrane transfer: After electrophoresis, remove the gel, cut a PVDF membrane […] of the appropriate size and activate the membrane with anhydrous methanol, and install the membrane transfer device in the following order from the negative pole to the positive pole: sponge cushion, gel, PVDF membrane, sponge cushion. After installing the membrane transfer device, place it in the corresponding membrane transfer tank, check the liquid level of the solution required for membrane transfer, turn on the power, and complete the membrane transfer after 3 transfer cycles.
3) Blocking: Place the membrane in QuickBlock™ Western Blocking Buffer and shake it for 20 minutes at room temperature.
4) Primary antibody incubation: After the blocking, discard the blocking solution, add the primary antibody diluted to the appropriate concentration, and gently shake the membrane overnight at 4° C. After completing the incubation, wash the membrane 4 times with 1×TBST for 5 min/time.
(5) Secondary antibody incubation: Add secondary antibody diluted to the appropriate concentration and gently shake the PVDF membrane for 1 hour at room temperature. After incubation, the membrane was washed 4 times with 1×TBST for 5 min/time.
6) Developing: Prepare the ECL developing solution before developing. Lay the PVDF membrane flat on a clean plastic wrap, add the developer solution to the membrane, and let it stand for 1 minute away from light. Subsequently, the PVDF membrane was imaged on a gel system.

In assay [2] the test system is MCF-7 cells. The assay is described as follows: Annexin V/PI double staining for apoptosis detection. Format: cell-based. Particulars: FIG. 6. The text has this: The surface of normal cells consists of lipids distributed asymmetrically on the inner and outer leaflets of the plasma membrane. One of them, phosphatidylserine (PS), is normally distributed only on the inner leaflet of the plasma membrane, and is therefore exposed only to the cytoplasm. However, when cells undergo apoptosis, PS is exposed on the outer leaflets of the plasma membrane. Annexin V is a phospholipid-binding protein capable of binding to PS. Therefore, fluorescently labeled Annexin V can be used to detect PS exposed to the outer leaflets of early apoptotic cells. By co-staining with propidium iodide (PI), Annexin V-PI can distinguish normal living cells, early apoptotic cells, and late apoptotic cells. Cell treatment: MCF-7 cells in the logarithmic growth phase were taken for the experiment. Cells were inoculated in six-well plates at a density of 5.0×10^5 cells/per well and incubated at 37° C. for 24 hours. Cells were treated with Example PROTAC drug AS2 and PROTAC prodrug A1 for 3 h, followed by X-ray irradiation, and cells continued to be cultured until 48 h after completion of irradiation. Cell collection: Collect the culture medium in a 1.5 mL centrifuge tube for spare. […] After incubation for 15 min at room temperature away from light, fluorescence detection was carried out by flow cytometry.

The test system of assay [3] is MCF-7 cell line. Nature of the assay: In vivo anti-tumor activity, MCF-7 tumor model. Set-up: species or system BALB/c nude mice. Particulars: 10 mg/kg subcutaneous injection. The method, then:
To investigate the in vivo activation and antitumor activity of the PROTAC compound AS2 and X-ray-responsive PROTAC compound A1, we performed in vivo antitumor activity studies. The MCF-7 cell line was selected, and experiments were performed in BALB/c nude mice. Experimental animals: BALB/c nude mice (female; 6-8 weeks old) were all purchased from Beijing Vital River Laboratory Animal Technology Co., Ltd and housed in pathogen-free conditions with standard temperature and humidity at the Laboratory Animal Resources Center of Tsinghua University. All animal experiments were approved by the Animal Ethics Committee of Tsinghua University. Tumor model establishment: MCF-7 cells in logarithmic growth phase were taken, and 0.25% trypsin was added to digest the cells after washing the cells for 3 times with pre-cooled PBS buffer. The digested cells were centrifuged at 1000 rpm/min for 5 min, the precipitate was discarded, and the cells were resuspended with pre-cooled PBS and carefully blown to make a single-cell solution. After the cells were counted by a counter, the cell density was adjusted to 1×10^7 cells/mL, and 10 mL was taken into a centrifuge tube and stored on ice. Before inoculation of cancer cells, nude mice were gently wiped under the skin of the right axilla with a paper towel sprayed with 75% alcohol. A 1 mL disposable syringe was used to aspirate 200 μL of cell suspension, and the air in the needle was removed, and a single subcutaneous injection was carried out by puncturing about 1 cm forward from the needle inlet site. The needle was withdrawn slowly to avoid fluid leakage. Observe the tumor growth status daily. Drug administration: When the tumor volume reached 120 mm^3, the tumor-bearing mice were randomly grouped. Six groups were set up, namely PBS, PROTAC drug AS2, PROTAC prodrug A1, PBS+X-ray irradiation, PROTAC drug AS2+X-ray irradiation, and PROTAC prodrug A1+X-ray irradiation. Each drug was dispersed in the following solution: 1.25% DMSO+20% PEG+5% Tween 80+73.75% dd H2O; administered dose: 10 mg/kg; subcutaneous injection. X-ray irradiation was performed 3 hours after drug injection. The irradiation dose was 5 Gy. Tumor size and body weight were monitored every other day. Tumor volume was calculated using the formula: tumor volume=length×width^2/2. After 16 days of monitoring, mice in each group were euthanized, and tumors and major organs were collected.

Assay [4] concerns MCF-7 cells. Nature of the assay: In vitro anti-tumor effect, CellTiter 96 viability assay. It counts as cell-based. Particulars: Homo sapiens, MCF7, light or radiation study. How it is done:
Experimental Procedure: MCF-7 cells in the logarithmic growth phase were used for the experiment. The cells were seeded at 5000 cells per well in 96-well plates and incubated for 24 hours at 37° C. The cells were treated with Example compounds A1-D3 for 3 h. Subsequently, the irradiated group was irradiated with 10-30 Gy of X-rays, and the cells were continued to be incubated until 72 h after completion of irradiation. At the end of drug treatment, 20 μL of CellTiter 96° solution was added to each well. The well plates were incubated in an incubator for 2-4 hours, and then the absorbance was measured using a plate reader. Data were analyzed with GraphPad Prism software to obtain the IC50 values of each test compound.

Structures are written as SMILES. Where two headings read alike, the source gives them in different places.

As a reminder, the IC50 is the point on the concentration scale where inhibition reaches its midpoint. Take `Cc1ncsc1-c1ccc([C@H](C)NC(=O)[C@@H]2C[C@@H](OC(=O)OCc3c(F)c(F)c(N=[N+]=[N-])c(F)c3F)CN2C(=O)[C@H](NC(=O)COCCOCCOCCNC(=O)C[C@@H]2N=C(c3ccc(Cl)cc3)c3c(sc(C)c3C)-n3c(C)nnc32)C(C)(C)C)cc1` [Compound A1]: the BRD4 degradation in assay [1] (co-treated with X-ray irradiation, 10 nM prodrug, FIG. 5) is listed as above 50%. The “degradation activity on BRD4 with X-ray irradiation” value in assay [1] (co-treated with X-ray irradiation, FIG. 5) is listed as “significantly degraded”. For the same molecule, in assay [1] (no irradiation, 0-300 nM, FIG. 4), the “degradation activity on BRD4 prior to activation” value is reported as “failed to degrade BRD4”. For the same molecule, the “ability to induce apoptosis” value in assay [2] (X-rays and compound together, 48 h after irradiation) is “significantly elevated early apoptotic and late apoptotic cells”; in assay [2] (without X-ray irradiation), “comparable to that of control DMSO”. Further, the “tumor growth (tumor volume)” value was “enhance the efficacy of radiation therapy” in assay [3] (X-ray 5 Gy 3 hours after drug injection) and “failed to inhibit the tumor growth” in assay [3] (no irradiation, compared with PBS group). Besides, the IC50 in assay [4] (compound 3 h, then X-rays 10 Gy or 30 Gy, 72 h after irradiation, read-out: Irradiation with 10 Gy or 30 Gy IC50) was 122 nM; in assay [4] (no irradiation, 72 h incubation, read-out: Radiation-free IC50), 1020 nM.
